Measured values published in patent US8153593B2, “Transglutaminase inhibitors and methods of use thereof” (The Board of Trustees of the Leland Stanford Junior …, priority 2003, dated 2012).

molecular target: T1, tumor associated TG2 (Mus musculus, UniProt P21981); test: Intracranial DBT tumor associated TG2 activity after dosing; type: in vivo, mice; details: 15 min after last of four daily doses
T1 construct: from tissue; host or cells: intracranial DBT glioblastoma tumours from dosed mice
T1 sequence (P21981 1-686): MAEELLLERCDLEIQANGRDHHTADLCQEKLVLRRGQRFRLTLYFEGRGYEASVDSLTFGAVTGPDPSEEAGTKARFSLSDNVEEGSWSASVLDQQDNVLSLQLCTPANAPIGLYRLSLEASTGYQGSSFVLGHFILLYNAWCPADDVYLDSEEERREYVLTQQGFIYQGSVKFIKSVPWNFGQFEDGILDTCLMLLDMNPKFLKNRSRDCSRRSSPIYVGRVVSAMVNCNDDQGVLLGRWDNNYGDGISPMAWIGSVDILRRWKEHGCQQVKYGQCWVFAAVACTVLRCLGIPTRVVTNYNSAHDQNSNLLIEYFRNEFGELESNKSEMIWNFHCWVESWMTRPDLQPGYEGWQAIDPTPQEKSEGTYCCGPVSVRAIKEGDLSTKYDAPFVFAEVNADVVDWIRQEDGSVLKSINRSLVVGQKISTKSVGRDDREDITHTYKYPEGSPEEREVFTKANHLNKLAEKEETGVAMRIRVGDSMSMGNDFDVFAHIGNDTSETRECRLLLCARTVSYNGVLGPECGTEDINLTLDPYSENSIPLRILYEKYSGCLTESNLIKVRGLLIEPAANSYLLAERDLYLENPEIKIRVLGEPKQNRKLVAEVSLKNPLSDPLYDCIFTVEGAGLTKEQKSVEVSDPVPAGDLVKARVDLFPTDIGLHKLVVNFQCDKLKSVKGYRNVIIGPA
Description: To test whether therapeutic doses of KCC009 can modulate TG2 activity associated with intracranial glioblastomas, DBT tumors were injected intracranially in mice. As judged by MRI, the mice consistently established intracranial tumors after 7-10 days following injections, which, if untreated, caused death by 2-3 weeks. In an initial dose-finding experiment, cohorts of mice were administered 4 daily doses of vehicle or KCC009 (12.5 mg/kg, 25 mg/kg and 50 mg/kg) starting on day 11 after intra-cranial injections. Twenty-four hours later, the mice were sacrificed and tumors analyzed. […] Based on these findings a dose of 35 mg/kg was used for subsequent experiments in mice harboring intracranial DBT tumors.
As summarized in Table 4, KCC009 treatment led to significant suppression of TG2 activity after 15 min, whereas enzyme activity recovers fully by 24 h. Both uninhibited and inhibited activity levels are consistent with similar measurements in the small intestinal mucosa (data not shown).

SMILES	TG2 activity-BCNU alone
O=NN(CCCl)C(=O)NCCCl [BCNU, reference compound]	2.1 ± 0.2 (n = 4) nmol/h/mg protein

same assay, conditions: 24 h after last of four daily doses

SMILES	TG2 activity-BCNU alone
O=NN(CCCl)C(=O)NCCCl [BCNU, reference compound]	2.2 ± 0.3 (n = 2) nmol/h/mg protein

molecular target: T2, recombinant human tissue transglutaminase (Homo sapiens, UniProt P21980); test: tTGase inhibition assay, residual activity by glutamate dehydrogenase coupled assay; type: biochemical; details: Table 3
T2 construct: made in house
T2 sequence (P21980 1-687): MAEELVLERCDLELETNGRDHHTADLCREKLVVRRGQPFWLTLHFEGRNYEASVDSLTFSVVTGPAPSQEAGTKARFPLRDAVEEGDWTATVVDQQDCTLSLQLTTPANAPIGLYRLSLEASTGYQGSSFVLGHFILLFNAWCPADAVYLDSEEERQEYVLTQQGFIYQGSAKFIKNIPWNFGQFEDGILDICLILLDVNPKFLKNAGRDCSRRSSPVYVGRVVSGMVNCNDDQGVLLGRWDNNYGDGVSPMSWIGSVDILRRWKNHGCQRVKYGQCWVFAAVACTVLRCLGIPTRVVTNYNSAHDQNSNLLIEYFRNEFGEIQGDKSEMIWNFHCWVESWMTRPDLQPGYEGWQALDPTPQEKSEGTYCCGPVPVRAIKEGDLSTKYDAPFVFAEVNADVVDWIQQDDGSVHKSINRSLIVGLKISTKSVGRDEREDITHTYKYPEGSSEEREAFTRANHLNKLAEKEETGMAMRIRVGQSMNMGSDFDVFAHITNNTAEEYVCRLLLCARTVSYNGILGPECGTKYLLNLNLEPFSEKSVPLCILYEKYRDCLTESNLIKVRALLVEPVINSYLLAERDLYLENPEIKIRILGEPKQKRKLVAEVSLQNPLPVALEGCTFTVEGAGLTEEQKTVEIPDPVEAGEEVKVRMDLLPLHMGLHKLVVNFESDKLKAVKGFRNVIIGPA

Ki	kinh	kinh/KI	SMILES
4.9 µM	0.1314 min⁻¹	26800 /Mmin	O=C(NC(Cc1c[nH]c2ccc(F)cc12)C(=O)NCC1CC(Br)=NO1)OCc1cnc2ccccc2c1 (centres unmarked) [ERW1069, [1-[(3-Bromo-4,5-dihydro-isoxazol-5-ylmethyl)-carbamoyl]-2-(5-fluoro-1H-indol-3-yl)-ethyl]-carbamic acid quinolin-3-ylmethyl ester]
–	–	<1200 >1200 <1200 <1200 /Mmin	O=C(NC(Cc1c[nH]c2ccc(F)cc12)C(=O)NCC1CC(Br)=NO1)OCc1ccccc1 (centres unmarked) [ERW903, [1-[(3-Bromo-4,5-dihydro-isoxazol-5-ylmethyl)-carbamoyl]-2-(5-fluoro-1H-indol-3-yl)-ethyl]-carbamic acid benzyl ester]
173 µM	0.283 min⁻¹	1600 /Mmin	COc1ccc2[nH]cc(CC(NC(=O)OCc3cnc4ccccc4c3)C(=O)NCC3CC(Br)=NO3)c2c1 (centres unmarked) [ERW1041D, [1-[(3-Bromo-4,5-dihydro-isoxazol-5-ylmethyl)-carbamoyl]-2-(5-methoxy-1H-indol-3-yl)-ethyl]-carbamic acid quinolin-3-ylmethyl ester]
63.1 µM	0.184 min⁻¹	2900 /Mmin	O=C(NC(Cc1ccc(O)cc1)C(=O)NCC1CC(Br)=NO1)OCc1cnc2ccccc2c1 (centres unmarked) [ERW1041A, [1-[(3-Bromo-4,5-dihydro-isoxazol-5-ylmethyl)-carbamoyl]-2-(4-hydroxy-phenyl)-ethyl]-carbamic acid quinolin-3-ylmethyl ester]
1380 µM	2.57 min⁻¹	1850 /Mmin	O=C(NC(Cc1c[nH]c2ccc(O)cc12)C(=O)NCC1CC(Br)=NO1)OCc1cnc2ccccc2c1 (centres unmarked) [ERW1041B, [1-[(3-Bromo-4,5-dihydro-isoxazol-5-ylmethyl)-carbamoyl]-2-(5-hydroxy-1H-indol-3-yl)-ethyl]-carbamic acid quinolin-3-ylmethyl ester]
953 µM	2.856 min⁻¹	3000 /Mmin	O=C(NCC1CC(Br)=NO1)[C@@H]1CCCN1C(=O)OCc1cnc2ccccc2c1 (stereo in doubt) [ERW1041E, 2-[(3-Bromo-4,5-dihydro-isoxazol-5-ylmethyl)-carbamoyl]-pyrrolidine-1-carboxylic acid quinolin-3-ylmethyl ester]
–	–	<1200 /Mmin	O=C(NCC1CC(Br)=NO1)C1Cc2ccccc2N1C(=O)OCc1ccccc1 (centres unmarked) [ERW1045, 2-[(3-Bromo-4,5-dihydro-isoxazol-5-ylmethyl)-carbamoyl]-2,3-dihydro-indole-1-carboxylic acid benzyl ester]

same assay, conditions: dihydroisoxazoles, Table 1

Ki	kinh	kinh/Ki	SMILES
240 µM	0.54 min⁻¹	2300 min^−1M^−1	O=C(C[C@H](NC(=O)OCc1ccccc1)C(=O)NCC1CC(Br)=NO1)NCc1ccccc1 (stereo partly drawn) [Compound 56, {(S)-2-Benzylcarbamoyl-1-[(3-bromo-4,5-dihydro-isoxazol-5-ylmethyl)-carbamoyl]-ethyl}-carbamic acid benzyl ester]
–	0.78 min⁻¹	2500 min^−1M^−1	O=C(N[C@@H](Cc1c[nH]c2ccccc12)C(=O)NCC1CC(Br)=NO1)OCc1ccccc1 (stereo partly drawn) [Compound 57, [(S)-1-[(3-Bromo-4,5-dihydro-isoxazol-5-ylmethyl)-carbamoyl]-2-(1H-indol-3-yl)-ethyl]-carbamic acid benzyl ester]
–	0.97 min⁻¹	1000 min^−1M^−1	Cc1ccc(C)c(NC(=O)NCC2CC(Br)=NO2)c1 (centres unmarked) [Compound 64, 1-(3-Bromo-4,5-dihydro-isoxazol-5-ylmethyl)-3-(2,5-dimethyl-phenyl)-urea]
1600 µM	0.32 min⁻¹	200 min^−1M^−1	COC(=O)[C@H](CCC(=O)NCC1CC(Br)=NO1)NC(=O)OCc1ccccc1 (stereo partly drawn) [Compound 50, (S)-2-Benzyloxycarbonylamino-4-[(3-bromo-4,5-dihydro-isoxazol-5-ylmethyl)-carbamoyl]-butyric acid methyl ester]
1300 µM	0.32 min⁻¹	230 min^−1M^−1	O=C(N[C@@H](Cc1ccccc1)C(=O)OCC1CC(Br)=NO1)OCc1ccccc1 (stereo partly drawn) [Compound 52, (S)-2-Benzyloxycarbonylamino-3-phenyl-propionic acid 3-bromo-4,5-dihydro-isoxazol-5-ylmethyl ester]
870 µM	0.43 min⁻¹	490 min^−1M^−1	COC(=O)[C@H](CC(=O)NCC1CC(Br)=NO1)NC(=O)OCc1ccccc1 (stereo partly drawn) [Compound 51, (S)-2-Benzyloxycarbonylamino-N-(3-bromo-4,5-dihydro-isoxazol-5-ylmethyl)-succinamic acid methyl ester]
–	1.1 min⁻¹	850 min^−1M^−1	O=C(NCC1CC(Br)=NO1)Nc1ccc(Cl)cc1C(F)(F)F (centres unmarked) [Compound 62, 1-(3-Bromo-4,5-dihydro-isoxazol-5-ylmethyl)-3-(4-chloro-2-trifluoromethyl-phenyl)-urea]
260 µM	0.19 min⁻¹	730 min^−1M^−1	CN(CC1CC(Br)=NO1)C(=O)[C@H](Cc1ccccc1)NC(=O)OCc1ccccc1 (stereo partly drawn) [Compound 58, {(S)-1-[(3-Bromo-4,5-dihydro-isoxazol-5-ylmethyl)-methyl-carbamoyl]-2-phenyl-ethyl}-carbamic acid benzyl ester]
–	1.0 min⁻¹	770 min^−1M^−1	O=C(NCC1CC(Br)=NO1)Nc1ccc(F)cc1 (centres unmarked) [Compound 63, 1-(3-Bromo-4,5-dihydro-isoxazol-5-ylmethyl)-3-(4-fluoro-phenyl)-urea]
–	0.29 min⁻¹	–	O=C(N[C@H](Cc1ccccc1)C(=O)NCC1CC(Br)=NO1)OCc1ccccc1 (stereo partly drawn) [Compound 55, {(R)-1-[(3-Bromo-4,5-dihydro-isoxazol-5-ylmethyl)-carbamoyl]-2-phenyl-ethyl}-carbamic acid benzyl ester]
910 µM	0.41 min⁻¹	450 min^−1M^−1	C[C@H](NC(=O)OCc1ccccc1)C(=O)NCC1CC(Br)=NO1 (stereo partly drawn) [Compound 53, {(S)-1-[(3-Bromo-4,5-dihydro-isoxazol-5-ylmethyl)-carbamoyl]-ethyl}-carbamic acid benzyl ester]
–	0.95 min⁻¹	1000 min^−1M^−1	O=C(NCC1CC(Br)=NO1)Nc1cc(C(F)(F)F)ccc1Cl (centres unmarked) [Compound 61, 1-(3-Bromo-4,5-dihydro-isoxazol-5-ylmethyl)-3-(2-chloro-5-trifluoromethyl-phenyl)-urea]
2700 µM	0.60 min⁻¹	220 min^−1M^−1	CC(=O)N[C@@H](Cc1ccccc1)C(=O)NCC1CC(Br)=NO1 (stereo partly drawn) [Compound 54, (S)-2-Acetylamino-N-(3-bromo-4,5-dihydro-isoxazol-5-ylmethyl)-3-phenyl-propionamide]
–	0.89 min⁻¹	810 min^−1M^−1	O=C(NCC1CC(Br)=NO1)Nc1ccccc1 (centres unmarked) [Compound 60, 1-(3-Bromo-4,5-dihydro-isoxazol-5-ylmethyl)-3-phenyl-urea]
